This passage reports Ki app results from ChEMBL document CHEMBL1124471, “Design and synthesis of inhibitors of N8-acetylspermidine deacetylase” (J Med Chem, 1989).

The test concerns N8-acetylspermidine deacetylase (Rattus norvegicus). Description: Inhibition of [acetyl-3H]-N8-Acetylspermidine deacetylase; NI = No inhibition.

SMILES strings stand for the structures.

Turning to `COC(=O)NCCCCCCN`, the Ki app result is listed as “Not Active”.
